Tests used:
Assay type in all cases: cell-based
human ASCs = test: Osteogenic differentiation of human ASCs modulated by E2 (Example 1)
Source text: (§1) Human bone marrow MSCs were provided by the Center for Gene Therapy of Tulane University. The MSCs were isolated from bone marrow cells donated by a healthy adult volunteer. The passage-1 cells were recovered and expanded by culture in a basic medium composed of DMEM, 10% FBS and 1% antibiotic-antimycotic. Human ASCs were isolated from a healthy person with a lipo-aspirated surgery. The abdomen subcutaneous adipose tissue was finely minced and then digested with 0.075 wt % collagenase type I at 37° C. for 45 min. The cells were then collected by filtration with a cell strainer with pore size of 100 μm diameter. The ASCs were expanded in basic DMEM medium. Upon reaching 80-90% confluence of human MSCs and ASCs, the cells were trypsinized, counted, and subcultured at a density of 10^5 cells/100 mm dish. The cells used for study were passage-2. For osteogenic differentiation, the cells were seeded at a cell density of 10^4 cells/cm2 on 12-well plates and 100-mm petri dishes. Upon reaching 70% confluence, counting as day-0, the cells were exposed to osteogenic differentiation medium supplemented with either 10 nM or 10 pM E2. The osteogenic differentiation medium consisted of basic medium supplemented with 100 nM dexamethasone, 10 mM β-glycerophosphate, and 0.05 mM ascorbic acid-2-phosphate. At the defined time, the cells were collected and analyzed for osteogenic gene expression and differentiation potentials.
(§2) The cultured cells in 12-well plates were washed twice with PBS, suspended and lysed in 1% Triton-X100 solution. The collected cells were subsequently homogenized using sonication. The DNA content was determined by a fluorometric assay (Bio-Rad). ALP and calcium content were measured by spectrophotometry with a calorimetric kit according to the manufacturers' instructions (Sigma).
(§3) RNA was extracted from differentiated cells using TRizol reagent (Invitrogen). 5 μg of total RNA was converted to single stranded cDNA using a commercial cDNA synthesis kit. Aliquots of the cDNA were amplified with Ampli-Taq DNA polymerase for ALP, osteocalcin (OCN), core binding factor alpha1 (cbfa1), peroxisome proliferator activated receptors gamma (PPARγ)-2, estrogen receptors (ER) alpha (α) and beta (β), and housekeeping gene GAPDH. 40 cycles were used, each consisting of 45 sec of denaturation at 95° C., 45 sec of annealing at 58° C., and 1 min of polymerization at 72° C.

[1] = tested on: rat bone MSC-based TE constructs; test: Osteogenic differentiation of rat bone MSC-based TE constructs with E2 (Example 4); details: 14 days; for calcium deposition: FIG. 9C
Description: TE constructs were created by seeding passage-1 MSCs on gelatin sponges (Gelfoam@, Pharmacia & Upjohn, Kalamazoo, Mich.). The sponge were trimmed into 4×4×4 mm^3 and pre-wet with DMEM medium for 1 hr. The sponges were transferred to MSC suspension with a cell density of 2×10^6 cells/ml under a slight vacuum created by 20 ml syringe, followed by incubation in 5% CO2 at 37° C. for two hours. Beginning the next day as day-0, TE constructs were respectively exposed to the osteogenic differentiation medium supplemented with different concentrations of E2 (10^−6M to 10^−12M). The osteogenic differentiation medium consists of basic medium supplemented with 100 nM dexamethasone, 10 mM β-glycerophosphate, and 0.05 mM ascorbic acid-2-phosphate. After two weeks of differentiation, constructs of each experimental group were collected and quantitatively measured for osteogenic differentiation.
TE constructs were immersed in 0.2 ml of 1% Triton-X100 and homogenized with sonication. The DNA concentration of cell lysate was measured fluorometrically using Hoechst dye 33258 (Bio-Rad, Hercules, Calif.). The fluorescent optical density of each sample was measured using a fluorometer having an excitation wavelength of 360 nm and an emission wavelength of 460 nm. The amount of DNA in each sample was determined by using a prepared standard curve. ALP and calcium content were measured by spectrophotometry with a calorimetric kit according to the manufacturers' instructions (Sigma, St. Louis, Mo.).

human bone marrow MSCs = test: Osteogenic differentiation of human bone marrow MSCs modulated by E2 (Example 1)
Source text: as §1, §2, §3

rat bone MSCs = test: Proliferation of rat bone MSCs with E2 modulation (MTS, Example 4); details: for cell proliferation (absorbance at 540 nm) vs control: 10^−9 and 10^−6 M E2, day 3, FIG. 9A; for E2 concentration of proliferation peak: day 3
Description: Three month-old, male and female Fisher 344 rats (Charles River Lab., Wilmington, Mass.) were purchased and euthanized by CO^2 inhalation. The tibias and femurs were dissected and bone marrow plugs were flushed out with a syringe (18-gauge needle), and filled with a basic medium consisting of DMEM, 10%FBS and 1% antibiotic-antimycotic. Cells were counted on a hemacytometer, plated at 5×10^7 cells/100-mm petri dish and incubated with basic DMEM medium at 37° C. in 5% CO2. The MSCs were isolated by removing unattached cells via medium exchange. The MSCs were incubated up to 80% confluence and then subcultured at a density of 10^6/100-mm dish. Prior to confluence, the MSCs were trypsinized, counted and used for measuring proliferation rate using E2 modulation.
In order to analyze the estrogen function on cell proliferation, 500 of passage-1 MSCs were placed into each well of 96-well plates and exposed to basic medium supplemented with different concentrations of E2 (10^−6M to 10^−9M) (Sigma, St. Louis, Mo.). On day 3, the cell proliferation with different estrogen modulations were quantified using a MTS calorimetric method according to manufacturer's manual (CellTiter 96® Queous One Solution Cell Proliferation Assay, Promega, Madison, Wis.)

[2] = tested on: human bone marrow mesenchymal stem cells (MSCs); test: Proliferation of human bone marrow MSCs in basic medium with E2 or E3 (MTS, Example 3)
Description: This study investigates the mitogenic effects of estrogen receptor ligands on human bone marrow MSCs that is not contacted with osteogenic or adipogenic medium. Purified human bone marrow mesenchymal stem cells (MSCs) were purchased commercially. MSCs were respectively exposed to basic medium (DMEM+10% FBS+1% antibiotics), and basic medium supplement with 10^−6 and 10^−9 M 17-β estradiol (E2) and estriol (E3) for approximately one week. Then, various cells were plated into 96-well plates in 500 cells/well and continued to be exposed to the media. After 4 days, cell densities were measured by MTS methods and compared to initial densities. FIG. 8 illustrates the increase of the number of MSCs after being treated with basic medium and basic medium supplemented with E2 or E3.

[3] = day 7, vs differentiation without estrogen supplement
[4] = osteogenic differentiation medium supplemented with E2 (10 nM or 10 pM)

With `C[C@]12CC[C@@H]3c4ccc(O)cc4CC[C@H]3[C@@H]1CC[C@@H]2O` [E2, 17-β estradiol] the calcium content (human ASCs; FIG. 2F) was “significantly increased”, the ALP activities (human ASCs; after 14 days, FIG. 2E) was “significantly improved” and the “OCN expression (RT-PCR)” value (human ASCs; day 7, E2 10 nM) was “only densely expressed”. The “cbfa-1 expression (RT-PCR band)” value (human ASCs; [3]) was “denser band”, the “cell proliferation (amount of DNA) during osteogenesis” value (human ASCs; higher dose of E2, FIG. 2D) was “inhibits” and the “ALP and von Kossa staining” value (human ASCs; [4]) was “denser color”. For the same molecule, the “peak concentration of E2 to increase ALP activity” value ([1]; both male and female MSCs) was 10^−10 M, the calcium deposition ([1]; female MSC-derived constructs) was “does not appear to have similar effects” and the calcium deposition ([1]; male MSC-derived constructs) was “may also improve”. For the same molecule, the “ALP activities of constructs” value ([1]; male and female constructs, dose-dependent, FIG. 9B) was “increased”, the calcium content (human bone marrow MSCs; FIG. 2C) was “significantly increased” and the ALP activities (human bone marrow MSCs; after 14 days, FIG. 2B) was “little statistical significance”. The “OCN expression (RT-PCR)” value (human bone marrow MSCs; day 7, E2 10 nM) was “only densely expressed”, the “cbfa-1 expression (RT-PCR band)” value (human bone marrow MSCs; [3]) was “denser band” and the “PPAR-γ2 expression (RT-PCR)” value (human bone marrow MSCs; day 7, vs standard osteogenic medium) was “inhibited”. For the same molecule, the “cell proliferation (amount of DNA) during osteogenesis” value (human bone marrow MSCs; higher dose of E2, FIG. 2A) was “does not affect”, the “ALP and von Kossa staining” value (human bone marrow MSCs; [4]) was “denser color” and the “cell proliferation (absorbance at 540 nm) vs control” value (rat bone MSCs; female MSCs) was “significantly higher”. The “E2 concentration of proliferation peak” value (rat bone MSCs; female bone MSCs) was 10^−6 M, the “cell proliferation (absorbance at 540 nm) vs control” value (rat bone MSCs; male MSCs) was “significantly higher” and the “E2 concentration of proliferation peak” value (rat bone MSCs; male bone MSCs) was 10^−9 M. The “cell proliferation (MTS assay and cell counting)” value ([2]; 10^−6 and 10^−9 M, about one week then 4 days in 96-well plates, FIG. 8) was “greatly increased” and the “differentiation capabilities (adipogenic and osteogenic) of modulated MSCs” value ([2]; vs controls) was “maintain their differentiation capabilities”.
